This passage reports IC50 results from ChEMBL document CHEMBL1909046, “DrugMatrix in vitro pharmacology data”.

The structures appear in SMILES notation.

Beta-3 adrenergic receptor, sequence (P13945 whole entry): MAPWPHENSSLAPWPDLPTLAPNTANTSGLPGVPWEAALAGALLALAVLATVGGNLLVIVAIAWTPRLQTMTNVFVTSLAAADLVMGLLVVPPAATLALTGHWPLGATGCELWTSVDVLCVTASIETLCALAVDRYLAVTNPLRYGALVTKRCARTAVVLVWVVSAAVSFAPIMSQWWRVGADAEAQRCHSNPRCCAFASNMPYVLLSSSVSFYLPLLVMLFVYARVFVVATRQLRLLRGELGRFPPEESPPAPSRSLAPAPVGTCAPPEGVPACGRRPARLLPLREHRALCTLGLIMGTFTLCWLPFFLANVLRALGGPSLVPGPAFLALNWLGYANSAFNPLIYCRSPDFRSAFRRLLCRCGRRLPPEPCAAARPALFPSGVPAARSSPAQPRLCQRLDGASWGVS
C-C chemokine receptor type 5, sequence (P51681 whole entry): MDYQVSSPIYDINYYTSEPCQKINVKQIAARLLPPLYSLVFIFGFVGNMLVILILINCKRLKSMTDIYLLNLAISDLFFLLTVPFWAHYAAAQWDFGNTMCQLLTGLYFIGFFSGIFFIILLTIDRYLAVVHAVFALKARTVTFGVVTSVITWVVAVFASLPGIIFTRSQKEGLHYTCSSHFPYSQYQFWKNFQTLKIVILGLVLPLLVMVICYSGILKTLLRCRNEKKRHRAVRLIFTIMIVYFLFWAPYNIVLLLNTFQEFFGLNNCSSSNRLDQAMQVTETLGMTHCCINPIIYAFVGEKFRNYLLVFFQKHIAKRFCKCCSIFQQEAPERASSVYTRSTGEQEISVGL

For one experiment, the target named is T1, Alpha-1D adrenergic receptor (Homo sapiens, UniProt P25100). Note: in other assays of this panel Not Active means under 50% inhibition at 10 µM.
T1 sequence (P25100 whole entry): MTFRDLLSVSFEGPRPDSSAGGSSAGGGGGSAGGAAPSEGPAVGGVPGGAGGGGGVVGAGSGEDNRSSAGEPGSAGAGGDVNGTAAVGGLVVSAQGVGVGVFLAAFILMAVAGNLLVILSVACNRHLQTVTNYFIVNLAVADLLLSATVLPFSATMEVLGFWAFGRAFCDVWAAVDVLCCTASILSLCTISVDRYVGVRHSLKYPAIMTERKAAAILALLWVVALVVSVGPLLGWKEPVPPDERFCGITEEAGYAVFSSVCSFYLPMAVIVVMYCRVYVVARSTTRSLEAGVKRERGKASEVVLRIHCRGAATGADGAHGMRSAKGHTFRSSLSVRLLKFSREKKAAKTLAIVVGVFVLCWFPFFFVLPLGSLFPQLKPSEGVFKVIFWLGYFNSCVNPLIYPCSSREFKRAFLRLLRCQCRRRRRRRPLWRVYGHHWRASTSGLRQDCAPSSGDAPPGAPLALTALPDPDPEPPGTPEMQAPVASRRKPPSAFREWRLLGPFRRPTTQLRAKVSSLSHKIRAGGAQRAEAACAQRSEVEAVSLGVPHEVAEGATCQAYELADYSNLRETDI
The experiment is classed as cell membranes, HEK293, Membrane. The conditions noted are these: hek293.
Take `CC1(C)O[C@@H]2C[C@H]3[C@@H]4C[C@H](F)C5=CC(=O)C=C[C@]5(C)[C@H]4[C@@H](O)C[C@]3(C)[C@]2(C(=O)CO)O1` [FLUNISOLIDE]: the IC50 entry is reported as “Not Active”.

Regarding `CC1(C)O[C@@H]2C[C@H]3[C@@H]4C[C@H](F)C5=CC(=O)C=C[C@]5(C)[C@@]4(F)[C@@H](O)C[C@]3(C)[C@]2(C(=O)CO)O1` [FLUOCINOLONE ACETONIDE], the IC50 entry is reported as “Not Active”.

As for `CC1(C)O[C@@H]2C[C@H]3[C@@H]4C[C@H](F)C5=CC(=O)CC[C@]5(C)[C@H]4[C@@H](O)C[C@]3(C)[C@]2(C(=O)CO)O1` [FLURANDRENOLIDE], the IC50 entry is on record as “Not Active”.

Regarding `Cc1ccc(S(=O)(=O)NC(=O)NN2CC3CCCC3C2)cc1` (stereo not drawn) [GLICLAZIDE], the IC50 entry is listed as “Not Active”.

The target in the next experiment is Beta-2 adrenergic receptor (Homo sapiens, UniProt P07550). Description: DRUGMATRIX: Adrenergic beta2 radioligand binding (ligand: [3H] CGP-12177). The experiment is classed as cell membranes, Membrane. As to conditions: cho; Not Active = under 50% inhibition at 10 µM.
Beta-2 adrenergic receptor, sequence (P07550 whole entry): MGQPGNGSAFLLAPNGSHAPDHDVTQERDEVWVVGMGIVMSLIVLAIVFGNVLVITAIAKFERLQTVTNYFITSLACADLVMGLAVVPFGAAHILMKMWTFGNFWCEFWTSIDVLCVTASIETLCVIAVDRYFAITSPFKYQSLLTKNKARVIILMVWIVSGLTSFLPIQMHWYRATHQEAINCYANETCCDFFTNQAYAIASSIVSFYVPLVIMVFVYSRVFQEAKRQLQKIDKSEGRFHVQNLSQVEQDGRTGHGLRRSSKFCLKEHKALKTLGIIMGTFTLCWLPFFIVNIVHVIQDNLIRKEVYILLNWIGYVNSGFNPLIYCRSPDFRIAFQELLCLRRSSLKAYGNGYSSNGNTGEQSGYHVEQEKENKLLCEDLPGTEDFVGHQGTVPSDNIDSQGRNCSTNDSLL
`CC1(C)O[C@@H]2C[C@H]3[C@@H]4C[C@H](F)C5=CC(=O)C=C[C@]5(C)[C@H]4[C@@H](O)C[C@]3(C)[C@]2(C(=O)CO)O1` [FLUNISOLIDE]: the IC50 result is “Not Active”.

`CC1(C)O[C@@H]2C[C@H]3[C@@H]4C[C@H](F)C5=CC(=O)C=C[C@]5(C)[C@@]4(F)[C@@H](O)C[C@]3(C)[C@]2(C(=O)CO)O1` [FLUOCINOLONE ACETONIDE]: the IC50 entry is reported as “Not Active”.

Take `CC1(C)O[C@@H]2C[C@H]3[C@@H]4C[C@H](F)C5=CC(=O)CC[C@]5(C)[C@H]4[C@@H](O)C[C@]3(C)[C@]2(C(=O)CO)O1` [FLURANDRENOLIDE]: the IC50 entry is on record as “Not Active”.

Regarding `Cc1ccc(S(=O)(=O)NC(=O)NN2CC3CCCC3C2)cc1` (stereo not drawn) [GLICLAZIDE], the IC50 entry is “Not Active”.

A further experiment has as its target Beta-3 adrenergic receptor (Homo sapiens, UniProt P13945). Description: DRUGMATRIX: Adrenergic beta3 radioligand binding (ligand: [125I] Cyanopindolol). It is filed as cell membranes, Membrane. As to conditions: hek293; Not Active = under 50% inhibition at 10 µM.
With `CC1(C)O[C@@H]2C[C@H]3[C@@H]4C[C@H](F)C5=CC(=O)C=C[C@]5(C)[C@H]4[C@@H](O)C[C@]3(C)[C@]2(C(=O)CO)O1` [FLUNISOLIDE], the IC50 result is “Not Active”.

Consider `CC1(C)O[C@@H]2C[C@H]3[C@@H]4C[C@H](F)C5=CC(=O)C=C[C@]5(C)[C@@]4(F)[C@@H](O)C[C@]3(C)[C@]2(C(=O)CO)O1` [FLUOCINOLONE ACETONIDE], for which the IC50 entry is “Not Active”.

`CC1(C)O[C@@H]2C[C@H]3[C@@H]4C[C@H](F)C5=CC(=O)CC[C@]5(C)[C@H]4[C@@H](O)C[C@]3(C)[C@]2(C(=O)CO)O1` [FLURANDRENOLIDE]: the IC50 entry is listed as “Not Active”.

As to `Cc1ccc(S(=O)(=O)NC(=O)NN2CC3CCCC3C2)cc1` (stereo not drawn) [GLICLAZIDE], the IC50 entry was “Not Active”.

The target in the next experiment is 5-hydroxytryptamine receptor 6 (Homo sapiens, UniProt P50406). It is filed as cell membranes, HeLa, Membrane. As to conditions: hela. Note: in other assays of this panel Not Active means under 50% inhibition at 10 µM.
5-hydroxytryptamine receptor 6, sequence (P50406 whole entry): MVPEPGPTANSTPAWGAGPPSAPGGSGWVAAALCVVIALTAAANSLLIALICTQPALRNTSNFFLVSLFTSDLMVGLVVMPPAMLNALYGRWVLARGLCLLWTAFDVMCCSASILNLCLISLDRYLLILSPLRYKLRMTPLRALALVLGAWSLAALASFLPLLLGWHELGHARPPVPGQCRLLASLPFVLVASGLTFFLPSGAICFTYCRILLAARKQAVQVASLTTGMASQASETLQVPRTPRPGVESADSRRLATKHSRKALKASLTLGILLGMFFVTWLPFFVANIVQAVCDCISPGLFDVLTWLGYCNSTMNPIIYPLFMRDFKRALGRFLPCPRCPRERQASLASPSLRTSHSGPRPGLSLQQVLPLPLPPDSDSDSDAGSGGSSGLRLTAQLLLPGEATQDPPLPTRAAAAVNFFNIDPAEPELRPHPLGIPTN
In the case of `CC1(C)O[C@@H]2C[C@H]3[C@@H]4C[C@H](F)C5=CC(=O)C=C[C@]5(C)[C@H]4[C@@H](O)C[C@]3(C)[C@]2(C(=O)CO)O1` [FLUNISOLIDE], the IC50 result is on record as “Not Active”.

For `CC1(C)O[C@@H]2C[C@H]3[C@@H]4C[C@H](F)C5=CC(=O)C=C[C@]5(C)[C@@]4(F)[C@@H](O)C[C@]3(C)[C@]2(C(=O)CO)O1` [FLUOCINOLONE ACETONIDE], the IC50 entry was “Not Active”.

`CC1(C)O[C@@H]2C[C@H]3[C@@H]4C[C@H](F)C5=CC(=O)CC[C@]5(C)[C@H]4[C@@H](O)C[C@]3(C)[C@]2(C(=O)CO)O1` [FLURANDRENOLIDE]: the IC50 entry is on record as “Not Active”.

For `Cc1ccc(S(=O)(=O)NC(=O)NN2CC3CCCC3C2)cc1` (stereo not drawn) [GLICLAZIDE], the IC50 entry is “Not Active”.

A further experiment has as its target C-C chemokine receptor type 5 (Homo sapiens, UniProt P51681). It is filed as cell membranes, HEK293, Membrane. The conditions noted are these: hek293. Note: in other assays of this panel Not Active means under 50% inhibition at 10 µM.
For `CC1(C)O[C@@H]2C[C@H]3[C@@H]4C[C@H](F)C5=CC(=O)C=C[C@]5(C)[C@H]4[C@@H](O)C[C@]3(C)[C@]2(C(=O)CO)O1` [FLUNISOLIDE], the IC50 entry is “Not Active”.

With `CC1(C)O[C@@H]2C[C@H]3[C@@H]4C[C@H](F)C5=CC(=O)C=C[C@]5(C)[C@@]4(F)[C@@H](O)C[C@]3(C)[C@]2(C(=O)CO)O1` [FLUOCINOLONE ACETONIDE], the IC50 entry is reported as “Not Active”.

As to `CC1(C)O[C@@H]2C[C@H]3[C@@H]4C[C@H](F)C5=CC(=O)CC[C@]5(C)[C@H]4[C@@H](O)C[C@]3(C)[C@]2(C(=O)CO)O1` [FLURANDRENOLIDE], the IC50 entry is given as “Not Active”.

For the molecule `Cc1ccc(S(=O)(=O)NC(=O)NN2CC3CCCC3C2)cc1` (stereo not drawn) [GLICLAZIDE], the IC50 entry was “Not Active”.

The target in a further experiment is T2, Muscarinic acetylcholine receptor M5 (Homo sapiens, UniProt P08912). Note: in other assays of this panel Not Active means under 50% inhibition at 10 µM.
T2 sequence (P08912 whole entry): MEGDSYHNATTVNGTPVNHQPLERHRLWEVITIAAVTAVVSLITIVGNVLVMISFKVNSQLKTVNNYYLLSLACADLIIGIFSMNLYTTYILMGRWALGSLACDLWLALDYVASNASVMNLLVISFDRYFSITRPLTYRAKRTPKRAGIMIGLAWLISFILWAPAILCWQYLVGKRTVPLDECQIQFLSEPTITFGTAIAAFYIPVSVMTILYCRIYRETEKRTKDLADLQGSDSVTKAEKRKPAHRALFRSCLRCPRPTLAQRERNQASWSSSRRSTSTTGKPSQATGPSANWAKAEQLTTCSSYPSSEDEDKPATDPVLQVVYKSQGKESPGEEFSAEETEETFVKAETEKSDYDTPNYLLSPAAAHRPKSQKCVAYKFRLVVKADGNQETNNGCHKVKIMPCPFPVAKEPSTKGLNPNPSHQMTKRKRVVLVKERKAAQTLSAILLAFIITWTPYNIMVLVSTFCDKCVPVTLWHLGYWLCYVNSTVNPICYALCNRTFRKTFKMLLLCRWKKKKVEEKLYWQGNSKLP
It is filed as cell membranes, CHO-K1, Membrane. The conditions noted are these: cho-k1.
For `CC1(C)O[C@@H]2C[C@H]3[C@@H]4C[C@H](F)C5=CC(=O)C=C[C@]5(C)[C@H]4[C@@H](O)C[C@]3(C)[C@]2(C(=O)CO)O1` [FLUNISOLIDE], the IC50 result is listed as “Not Active”.

`CC1(C)O[C@@H]2C[C@H]3[C@@H]4C[C@H](F)C5=CC(=O)C=C[C@]5(C)[C@@]4(F)[C@@H](O)C[C@]3(C)[C@]2(C(=O)CO)O1` [FLUOCINOLONE ACETONIDE]: the IC50 entry is listed as “Not Active”.

For `CC1(C)O[C@@H]2C[C@H]3[C@@H]4C[C@H](F)C5=CC(=O)CC[C@]5(C)[C@H]4[C@@H](O)C[C@]3(C)[C@]2(C(=O)CO)O1` [FLURANDRENOLIDE], the IC50 entry is reported as “Not Active”.

As to `Cc1ccc(S(=O)(=O)NC(=O)NN2CC3CCCC3C2)cc1` (stereo not drawn) [GLICLAZIDE], the IC50 result is listed as “Not Active”.

Another experiment addresses T3, Nitric oxide synthase, inducible (Mus musculus, UniProt P29477).
T3 sequence (P29477 whole entry): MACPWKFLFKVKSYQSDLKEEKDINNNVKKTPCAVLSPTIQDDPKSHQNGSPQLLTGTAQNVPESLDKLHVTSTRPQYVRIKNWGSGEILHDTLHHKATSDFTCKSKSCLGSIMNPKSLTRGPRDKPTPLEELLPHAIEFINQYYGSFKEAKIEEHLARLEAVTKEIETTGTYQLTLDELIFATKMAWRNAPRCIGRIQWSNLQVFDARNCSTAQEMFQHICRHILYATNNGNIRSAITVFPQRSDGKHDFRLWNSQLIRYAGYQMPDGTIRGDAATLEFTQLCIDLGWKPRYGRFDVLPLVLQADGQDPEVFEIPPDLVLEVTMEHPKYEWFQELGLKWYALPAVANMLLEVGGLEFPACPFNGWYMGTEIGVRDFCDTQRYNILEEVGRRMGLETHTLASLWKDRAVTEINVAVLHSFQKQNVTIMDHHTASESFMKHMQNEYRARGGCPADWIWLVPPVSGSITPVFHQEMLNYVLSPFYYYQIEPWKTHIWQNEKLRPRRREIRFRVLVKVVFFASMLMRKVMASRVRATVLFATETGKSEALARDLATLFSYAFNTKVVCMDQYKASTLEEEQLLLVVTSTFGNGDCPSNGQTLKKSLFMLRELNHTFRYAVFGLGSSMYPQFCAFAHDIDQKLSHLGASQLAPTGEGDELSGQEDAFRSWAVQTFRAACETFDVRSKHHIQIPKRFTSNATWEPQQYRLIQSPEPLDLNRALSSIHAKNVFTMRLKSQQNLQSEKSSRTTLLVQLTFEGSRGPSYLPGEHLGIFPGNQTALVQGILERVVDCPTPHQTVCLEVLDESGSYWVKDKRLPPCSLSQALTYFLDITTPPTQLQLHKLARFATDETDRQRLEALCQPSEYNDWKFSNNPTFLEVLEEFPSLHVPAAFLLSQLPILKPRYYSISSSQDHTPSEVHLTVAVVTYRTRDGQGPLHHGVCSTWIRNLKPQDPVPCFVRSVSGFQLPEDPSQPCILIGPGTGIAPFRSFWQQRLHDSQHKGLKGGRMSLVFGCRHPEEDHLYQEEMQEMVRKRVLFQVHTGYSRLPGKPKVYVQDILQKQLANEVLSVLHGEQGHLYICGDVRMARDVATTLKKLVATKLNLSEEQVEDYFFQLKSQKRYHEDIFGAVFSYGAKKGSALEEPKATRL
Also on record: species or system Escherichia coli.
Conditions: not given
Turning to `CC1(C)O[C@@H]2C[C@H]3[C@@H]4C[C@H](F)C5=CC(=O)C=C[C@]5(C)[C@H]4[C@@H](O)C[C@]3(C)[C@]2(C(=O)CO)O1` [FLUNISOLIDE], the IC50 result is recorded as “Not Active”.

Consider `CC1(C)O[C@@H]2C[C@H]3[C@@H]4C[C@H](F)C5=CC(=O)C=C[C@]5(C)[C@@]4(F)[C@@H](O)C[C@]3(C)[C@]2(C(=O)CO)O1` [FLUOCINOLONE ACETONIDE], for which the IC50 entry is on record as “Not Active”.

For the molecule `CC1(C)O[C@@H]2C[C@H]3[C@@H]4C[C@H](F)C5=CC(=O)CC[C@]5(C)[C@H]4[C@@H](O)C[C@]3(C)[C@]2(C(=O)CO)O1` [FLURANDRENOLIDE], the IC50 result is “Not Active”.

With `Cc1ccc(S(=O)(=O)NC(=O)NN2CC3CCCC3C2)cc1` (stereo not drawn) [GLICLAZIDE], the IC50 entry is listed as “Not Active”.
